The source of these data is patent US6583147B1, “Pyrazolopyrimidinone derivatives for the treatment of impotence” (Dong A Pharm Co., Ltd., priority 1998, dated 2003).

In data set [1] the target is Phosphodiesterase-6 enzyme (PDE 6) (Aquarana catesbeiana, UniProt Z9LGG0MB32+Z9OH76POJ0). The data set can be described thus: Test for phosphodiesterase-6 (PDE 6) activity. Type of data set: biochemical, bullfrog. Conditions: PDE 6 fraction from retina of bullfrogs, trypsin-activated.
In another data set the test system is rats. The data set can be described thus: Penile erection test using rats. Type of data set: in vivo, rat. The settings on record: oral single dose 10 mg/kg in 0.5% methyl cellulose, observed for 2 hours.
Data set [2] deals with men with erectile dysfunction of organic cause. The settings on record: oral administration; cited from earlier work.
The nature of data set [3]: Solubility in buffer solution in pH=2&5. Type of data set: physicochemical. Conditions: for solubility at 30 min: 20 °C, thermodynamic from solid. The protocol: According to that defined in the Korea Pharmacopoeia, citrate-HCl buffer (pH 2) and citrate-NaOH buffer (pH 5) solutions were added to the powdered compounds of formula 1, respectively. After subsequent severe shaking for 30 sec every 5 min in […] for 30 min, the level of compounds in the filtrate was measured by high performance liquid chromatography.

Data set [4] has as its target T1, Phosphodiesterase-3 enzyme (PDE 3) (Oryctolagus cuniculus, UniProt G1ST54).
T1 construct: The supernatant was separated by DEAE-cellulose column chromatography (Whatman DE52 bead); from tissue; host or cells: rabbit platelets
T1 sequence (G1ST54 1-1128): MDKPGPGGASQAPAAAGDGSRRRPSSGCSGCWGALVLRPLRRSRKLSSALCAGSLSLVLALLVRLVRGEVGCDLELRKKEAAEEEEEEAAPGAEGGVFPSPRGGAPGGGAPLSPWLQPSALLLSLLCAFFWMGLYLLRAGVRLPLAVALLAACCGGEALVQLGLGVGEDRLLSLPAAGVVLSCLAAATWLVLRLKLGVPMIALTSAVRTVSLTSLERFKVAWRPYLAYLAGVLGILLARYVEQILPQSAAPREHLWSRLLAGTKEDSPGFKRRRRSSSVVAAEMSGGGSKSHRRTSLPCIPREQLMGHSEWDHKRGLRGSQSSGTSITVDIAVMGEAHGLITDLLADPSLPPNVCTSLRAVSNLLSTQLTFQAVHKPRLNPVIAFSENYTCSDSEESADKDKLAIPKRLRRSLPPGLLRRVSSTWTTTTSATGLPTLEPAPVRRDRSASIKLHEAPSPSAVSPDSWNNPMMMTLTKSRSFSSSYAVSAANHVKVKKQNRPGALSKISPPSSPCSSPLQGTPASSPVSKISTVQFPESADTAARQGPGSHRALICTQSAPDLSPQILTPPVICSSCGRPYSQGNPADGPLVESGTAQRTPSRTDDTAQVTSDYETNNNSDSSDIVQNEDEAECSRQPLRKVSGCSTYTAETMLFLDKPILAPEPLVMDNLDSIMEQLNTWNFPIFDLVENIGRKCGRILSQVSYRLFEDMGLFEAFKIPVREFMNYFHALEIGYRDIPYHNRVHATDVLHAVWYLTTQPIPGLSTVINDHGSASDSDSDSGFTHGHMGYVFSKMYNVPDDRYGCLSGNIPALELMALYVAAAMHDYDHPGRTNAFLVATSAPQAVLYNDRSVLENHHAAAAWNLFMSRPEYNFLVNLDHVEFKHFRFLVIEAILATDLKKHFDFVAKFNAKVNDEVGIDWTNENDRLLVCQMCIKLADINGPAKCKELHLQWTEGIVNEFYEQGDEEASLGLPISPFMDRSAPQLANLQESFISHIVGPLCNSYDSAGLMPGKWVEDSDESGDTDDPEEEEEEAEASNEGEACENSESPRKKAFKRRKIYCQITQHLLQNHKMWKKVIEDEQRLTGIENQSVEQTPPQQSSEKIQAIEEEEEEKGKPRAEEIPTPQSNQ
The data set can be described thus: Test for phosphodiesterase-3 (PDE 3) activity. Type of data set: biochemical. Conditions: PDE 3 fraction from platelets of a rabbit. A digest of the protocol:
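PDE3 taken from rabbit platelets as a DEAE-cellulose fraction, incubated with inhibitor and [3H]-cAMP or [3H]-cGMP (500 nM) for about 1 h at 30° C, pH 7.4. Product converted by snake venom or 5′-nucleotidase, unreacted substrate removed on anion-exchange resin, supernatant radioactivity counted by β-counter.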

Data set [5] in a line: Acute oral toxicity test in rats. The settings on record: SD, rat, in vivo, 1 g/kg; rats, oral single dose; read-out: lethal dose (LD50) of oral administration.
The target of data set [6] is T2, Phosphodiesterase-5 enzyme (PDE 5) (Homo sapiens, UniProt O76074).
T2 construct: separated by HPLC (Mono Q anion exchange column) with concentration gradient of 0-500 mM NaCl to elute PDE isozymes; from tissue; host or cells: human corpus cavernosal tissue
The data set can be described thus: Test for phosphodiesterase-5 (PDE 5) activity. Type of data set: biochemical. The settings on record: PDE 5 fraction from human corpus cavernosal tissues.

Data set [7] can be described thus: Metabolism in rat liver (9,000xg supernatant fraction with NADPH). The settings on record: 10 ug/ml, 37° C., 1 hr, rat liver 9,000xg supernatant with NADPH generating solution. Format: in vitro ADME. On the procedure:
In order to evaluate the extent of metabolism of the compounds of formula 1, the metabolism in rat liver was studied as below similar to the reported method (C. L. Litterist, E. G. Mimnaugh, R. I. Reagan and T. G. Gram., Drug. Metabol. Disposit., 1975, 3, 259-265). In short, the disappearance of compounds after incubation in 9, 000×g supernatant fraction of rat liver homogenate in the presence of NADPH (reduced nicotinamide adenine dinucleotide phosphate) was evaluated.
First, Sprague-Dawley rat (Korea Experiment Animals, SPF) liver was isolated after perfusion through portal vein with 0.1 M phosphate buffer of pH 7.0 using tissue homogenizer at 4° C. After centrifugation at 9,000×g for 20 min, the supernatants were collected.
The compound stock solution was spiked (10 ug/ml) into each of the eppendorf tubes containing 1 ml of the mixed solution composing 1 volume of supernatants and 2 volumes of generating solution. The generating solution contains 1 mM NADP, 10 mM glucose-6-phosphate, 50 mM nicotinamide and 5 MM MgCl2 in 0.1 M phosphate buffer of pH 7.0. After vortex-mixing, each test tube was incubated in a water bath kept at 37° C. After 1 hr, was added acetonitrile to the reaction mixture and centrifuged. 100 ul of aliquot of the supernatant was sampled from each test tube for measuring the remnants by high performance liquid chromatography.

The mark [8] stands for this setting: citrate-HCl buffer, pH 2, aqueous buffer, citrate-HCl buffer (pH 2), read-out: solubility pH 2.
The mark [9] stands for this setting: citrate-NaOH buffer, pH 5, aqueous buffer, citrate-NaOH buffer (pH 5), read-out: solubility pH 5.

Converted amounts (≈) assume the structure as drawn. Read-outs that look alike come from different tables or passages of the source. Where only a bound is given, the exact number is not on record here.

What is called IC50 is the concentration that gives 50% inhibition. The low end stands for greater potency in that assay, the high end for weaker potency in that assay. What is called solubility is the dissolved amount per volume that the medium holds.

For `CCCc1nn(C)c2c(=O)[nH]c(-c3cc(S(=O)(=O)N4CCN(C)CC4)ccc3OCC)nc12` [sildenafil, reference compound], the IC50 in data set [1] was 0.0767 ± 0.00153 µg/mL (≈ 0.162 µM); in data set [4], 71400 nM. The “genital grooming (number of genital groomings)” value (“genital grooming” for short) in the data set on rats was 3.1 ± 1.2. Also, in data set [2], the response rate entry is “around 80%”. The results for the solubility at 30 min in data set [3] (setting [8]) and in data set [3] (setting [9]) were 1580 µg/mL (≈ 3340 µM) and 480 µg/mL (≈ 1010 µM), respectively.

On to `CCCOc1ccc(S(=O)(=O)NCc2cccnc2)cc1-c1nc2c(CCC)nn(C)c2c(=O)[nH]1` [Example 49, 5-[2-propyloxy-5-(3-pyridylmethylamidosulfonyl)phenyl]-1-methyl-3-propyl-1,6-dihydro-7H-pyrazolo(4,3-d)pyrimidin-7-one], for which, in data set [5], the LD50 was above 1000 mg/kg. The IC50 in data set [6] was 0.3 nM. In addition, in the data set on rats, the “PEI (penile erection index)” value is 200.0 ± 173.2 and the “genital grooming” value was found to be 1.3 ± 0.6. For the same compound, in data set [3] (setting [8]), the solubility at 30 min came to 43 µg/mL (≈ 86.6 µM). The “remnants (%)” value in data set [7] was found to be 71.3%. In data set [4], this compound showed an IC50 of 25200 nM.

For the compound `CCCOc1ccc(S(=O)(=O)NCC2CCCN2C)cc1-c1nc2c(CCC)nn(C)c2c(=O)[nH]1` (centres unmarked) [Example 56, 5-[2-propyloxy-5-(1-methyl-2-pyrrolidinylmethylamidosulfonyl)phenyl]-1-methyl-3-propyl-1,6-dihydro-7H-pyrazolo(4,3-d)pyrimidin-7-one], the LD50 in data set [5] is above 1000 mg/kg. Moreover, the half-inhibitory concentration (IC50) in data set [6] was 14.2 nM; in data set [4], above 199000 nM. For the same compound, the “PEI (penile erection index)” value with rats worked out at 200.0 ± 81.7. For the same compound, the “genital grooming” value in the data set on rats is listed as 2.0 ± 0.0. For the same compound, the “solubility pH 2” value in data set [3] (citrate-HCl buffer (pH 2)) came to 3918 ug/ml. The solubility at 30 min in data set [3] (setting [8]) lay in the range of 3720 to 5360 µg/mL (≈ 7400 to 10700 µM); in data set [3] (setting [9]) it was 4920 to 14800 µg/mL (≈ 9790 to 29400 µM). In addition, the “solubility pH 5” value in data set [3] (citrate-NaOH buffer (pH 5)) is recorded as 6361 ug/ml. Also, in data set [7], the “remnants (%)” value is recorded as 83.9%.

In the case of `CCCOc1ccc(S(=O)(=O)NCc2ccncc2)cc1-c1nc2c(CCC)nn(C)c2c(=O)[nH]1` [Example 44, 5-[2-propyloxy-5-(4-pyridylmethylamidosulfonyl)phenyl]-1-methyl-3-propyl-1,6-dihydro-7H-pyrazolo(4,3-d)pyrimidin-7-one], the LD50 in data set [5] is above 1000 mg/kg. For the same compound, the 50% inhibitory concentration (IC50) in data set [6] was 0.328 nM; in data set [4] it was 12600 nM. Moreover, the “PEI (penile erection index)” value with rats came out at 166.7 ± 115.5. The “genital grooming” value with rats was 1.3 ± 0.6. In addition, the solubility at 30 min in data set [3] (setting [8]) turned out to be 373 µg/mL (≈ 751 µM); in data set [3] (setting [9]), 1 µg/mL (≈ 2.01 µM). Besides, in data set [7], the “remnants (%)” value worked out at 49.8%.

In the case of `CCOc1ccc(S(=O)(=O)NCc2cccnc2)cc1-c1nc2c(CC(C)C)nn(C)c2c(=O)[nH]1` [Example 48, 5-[2-ethoxy-5-(3-pyridylmethylamidosulfonyl)phenyl]-1-methyl-3-isobutyl-1,6-dihydro-7H-pyrazolo(4,3-d)pyrimidin-7-one], the LD50 in data set [5] is above 1000 mg/kg. For the same compound, the IC50 in data set [6] was 0.89 nM; in data set [4], 33600 nM. In addition, in the data set on rats, the “PEI (penile erection index)” value was 166.7 ± 57.7. In the data set with rats, the “genital grooming” value is 1.3 ± 0.6. The figures for the solubility at 30 min in data set [3] (setting [8]) and in data set [3] (setting [9]) were 114 µg/mL (≈ 230 µM) and 0.3 µg/mL (≈ 0.604 µM), respectively. The “remnants (%)” value in data set [7] is 66.0%.

Turning to `CCOc1ccc(S(=O)(=O)NCC2CCCN2C)cc1-c1nc2c(CC(C)C)nn(C)c2c(=O)[nH]1` (centres unmarked) [Example 58, 5-[2-ethoxy-5-(1-methyl-2-pyrrolidinylmethylamidosulfonyl)phenyl]-1-methyl-3-isobutyl-1,6-dihydro-7H-pyrazolo(4,3-d)pyrimidin-7-one], the LD50 in data set [5] was above 1000 mg/kg. The IC50 in data set [6] was 16 nM; in data set [4], above 199000 nM. The “PEI (penile erection index)” value in the data set on rats is 275.0 ± 170.8. Moreover, the “genital grooming” value in the data set on rats stood at 3.0 ± 1.8. For the same compound, the “solubility pH 2” value in data set [3] (citrate-HCl buffer (pH 2)) came out at 3722 ug/ml. In addition, the solubility at 30 min was 3720 to 5360 µg/mL (≈ 7400 to 10700 µM) in data set [3] (setting [8]) and 4920 to 14800 µg/mL (≈ 9790 to 29400 µM) in data set [3] (setting [9]). For the same compound, in data set [3] (citrate-NaOH buffer (pH 5)), the “solubility pH 5” value turned out to be 9003 ug/ml. Also, the “remnants (%)” value in data set [7] is 93.5%.

Regarding `CCOc1ccc(S(=O)(=O)NCc2ccncc2)cc1-c1nc2c(CC(C)C)nn(C)c2c(=O)[nH]1` [Example 46, 5-[2-ethoxy-5-(4-pyridylmethylamidosulfonyl)phenyl]-1-methyl-3-isobutyl-1,6-dihydro-7H-pyrazolo (4,3-d)pyrimidin-7-one], the LD50 in data set [5] is above 1000 mg/kg. For the same compound, the concentration for half-maximal inhibition (IC50) in data set [6] was 1.2 nM; in data set [4], above 201000 nM. The “PEI (penile erection index)” value in the data set on rats is on record as 200.0 ± 173.2. For the same compound, in the data set with rats, the “genital grooming” value was found to be 1.3 ± 0.6. Moreover, the solubility at 30 min in data set [3] (setting [8]) amounted to 183 µg/mL (≈ 369 µM); in data set [3] (setting [9]), 0.4 µg/mL (≈ 0.805 µM). For the same compound, the “remnants (%)” value in data set [7] is listed as 75.9%.

Regarding `CCOc1ccc(S(=O)(=O)NCc2ccccn2)cc1-c1nc2c(CC(C)C)nn(C)c2c(=O)[nH]1` [Example 51, 5-[2-ethoxy-5-(2-pyridylmethylamidosulfonyl)phenyl]-1-methyl-3-isobutyl-1,6-dihydro-7H-pyrazolo(4,3-d)pyrimidin-7-one], the LD50 in data set [5] is above 1000 mg/kg. Besides, the 50% inhibitory concentration (IC50) was 1.5 nM in data set [6] and above 201000 nM in data set [4]. Also, the “PEI (penile erection index)” value in the data set with rats was 233.3 ± 152.8. In addition, the “genital grooming” value with rats was determined as 3.0 ± 2.0. Further, the solubility at 30 min in data set [3] (setting [8]) came out at 215 µg/mL (≈ 433 µM); in data set [3] (setting [9]) it was 1 µg/mL (≈ 2.01 µM). Further, the “remnants (%)” value in data set [7] amounted to 70.4%.
